The structures appear in SMILES notation. Residues, ends and D or L forms follow the SMILES beside them. *: point of attachment. Tos = Cc1ccc(S(=O)(=O)*)cc1; OtBu = CC(C)(C)O*

Usually melting point stands for the temperature of the solid-liquid transition. In turn, `COC(=O)NS(=O)(=O)Nc1c(C(C)C)cccc1C(C)C` returned a melting point of 152 to 155 °C. The compound `CN(C)C1CC2=CN(S(=O)(=O)c3ccccc3)C=C3C=CC(=O)CC1=C32` (configuration not stated) came in with a melting point of 114 to 116 °C. The result for `COC(=O)COc1cccc2c(CCOS(C)(=O)=O)coc12` reads 111 °C.

Take `COC(=O)N1CCC(C(C(N)=O)(c2ccc(F)cc2)c2ccc(F)cc2)CC1`: the melting point lay in the range of 126 to 129 °C. Regarding `CC(=O)OC1CC(OCc2ccccc2)C2COC1O2` (configuration not stated), the melting point was 85 to 87 °C. The result for `CSc1cc2c(cc1C(F)(F)F)N(C(=O)Nc1cccc(-c3csc(-c4cccnc4)n3)c1)CC2` reads 154 to 155 °C; that for `COCCN1CCN(CCc2ccc(Nc3ncc4c(n3)-c3ccccc3C(c3cccc(Br)c3)C4)cc2)CC1` (configuration not stated), 105 to 107 °C. The compound `CCCN(C(N)=S)C(COC1CCCCO1)c1ccccc1` (configuration not stated) registered a melting point of 82 °C. `COc1ccc(-c2oc3cc(NS(C)(=O)=O)c(Oc4ccccc4)cc3c(=O)c2O)cc1OC` showed a melting point of 222 to 224 °C. In the case of `N#Cc1cccc(CSc2nnc(-c3ccc4ncc(-c5ccccn5)n4c3)o2)c1`, the melting point lay within 192 to 193 °C. For `Cc1noc(NS(=O)(=O)c2cc(OCc3ccccc3)ccc2-c2ccc(CC(C)C)cc2)c1C`, the melting point was 96 to 101 °C.

`CC1(C)CC(=O)Nc2c(CCCN3CCN(c4nsc5ccccc45)CC3)cccc21` had a melting point of 166 °C. Take `C#CCn1c(=O)n(CCN2CCN(c3ccccc3OC)CC2)c(=O)c2cscc21`: the melting point lay within 142 to 143 °C. The result for `O=C(O)CCc1cc(OCC2CC2)nn1Cc1ccc(C(F)(F)F)cc1Cl` reads 115 to 116 °C. For the compound `FC(F)(F)c1cc(N2CCN(Cc3ccc4ccccc4n3)CC2)ccc1Cl`, the melting point was 61 to 64 °C. With `CC(=O)NS(=O)(=O)c1cccc(NC(=O)NC2N=C(c3ccccc3F)c3ccccc3N(CC(=O)N3CC4CCC(CC4)C3)C2=O)c1` (racemic), the melting point fell in the range of 193 to 203 °C. As to `CN(C)c1ccc(CN[C@@H](C(=O)O)[C@H](O)[C@H](Cc2ccccc2)NC(=O)OC(C)(C)C)cc1`, the melting point was 202 to 204 °C. Regarding `CC(=O)Nc1cccc2c1C(=O)c1c-2n[nH]c1-c1ccc(N2CCCCC2)cc1`, the melting point stood at 291 °C. For the compound `CCCCCCCCCCCCCCCCCCOC(=O)c1ccc(C(=O)OCCCCCCCCCCCCCCCCCC)cc1`, the melting point is 140 °C. `CCn1cnc2c(Cl)nc(Cl)nc21` returned a melting point of 100 to 103 °C. `COc1ccc(CN2C=CC=C3C2=Nc2cc(C)ccc2S(=O)(=O)N3C)cc1` returned a melting point of 135 to 136 °C. Then `COc1nn(-c2ccc(CBr)c(Cl)c2)nc1Cl`, with 141 to 142 °C; and `O=C(O)c1ccc(F)c2c1OCC=C2`, with 187 to 189 °C. `CC1(O)CCC2(C)C(CCC3C2CCC2(C)C(C(=O)COc4ccc([N+](=O)[O-])cc4)CCC32)C1` (configuration not stated) came in with a melting point of 169 to 172 °C. Compound `CCc1nc2ccc(C(C(C)C)n3ccnc3)cc2[nH]c1=O` (configuration not stated) returned a melting point of 204 °C. Compound `CC(C)c1cccc(C(C)C)c1NC(=O)C1c2ccccc2COc2ccc(CO)cc21` (configuration not stated) displayed a melting point of 157 to 158 °C.

For `CS(=O)(=O)c1c(C#N)nn(-c2c(Cl)cc(C(F)(F)F)cc2Br)c1N`, the melting point lay in the range of 235 to 238 °C.

Turning to `Cc1nnc2n1-c1ccccc1C(c1ccc(Cl)cc1)=NN2Cc1ccc(NC=O)cc1`, the melting point was in the range of 215 to 216 °C. The result for `CS(=O)(=O)Nc1ccc(CCNC(=O)c2cc3cc(O)ccc3cc2O)cc1` reads 176 to 178 °C. Regarding `CC(C)=NNc1cc2c(nn1)CCN(C(=O)c1ccccc1F)C2`, the melting point was in the range of 200 to 203 °C. The compound `CS(=O)(=O)Nc1ccc(OCCCN2C(=O)c3ccccc3C2=O)cc1` registered a melting point of 176 to 178 °C. Then `C[C@H]1C(=O)OCCN1CC=CC(=O)Nc1cc2c(Nc3ccc(F)c(Cl)c3)ncnc2cc1OCC1CC1`, with 182 °C; and `CCC1=Nc2c(C)nn(C)c2C2=NCCN12`, with 148 to 150 °C; and `CCN(CC)CCOc1ccc(Nc2ncc3c(n2)N(C)C(=O)N(C(C)(C)C)C3)cc1`, with 130 °C. As to `O=C1CCC(N2C(=O)c3cccc(OCc4ccc(CN5CCC(c6ccccc6)CC5)cc4)c3C2=O)C(=O)N1` (configuration not stated), the melting point was 142 to 144 °C.

For `C=C(c1ccccc1)[C@@H](C)[C@H](NC(=O)C(F)(F)F)C(=O)O`, the melting point was determined as 108 °C. Compound `CCOC(=O)c1cnn(-c2ccc(Cl)cc2)c1N` displayed a melting point of 150 to 156 °C. As for `CCCCCCCN(CCCCCSc1nc(-c2ccccc2)c(-c2ccccc2)[nH]1)C(=O)NC`, the melting point was in the range of 93 to 96 °C. In turn, `CCCc1c(OCc2ccc(C(=O)O)c(Br)c2)ccc(C(C)=O)c1O` yielded a melting point of 80 to 83 °C. Then `CC(C)=CCCC(C)C1CCC2C3=CC=C4CC(O)CCC4(C)C3CCC21C` (configuration not stated), with 114 to 117 °C; and `NC(=O)c1ccc2[nH]cc(CCN3C(=O)c4ccccc4C3=O)c2c1`, with 254 to 256 °C; and `O=C(O)CCC(=O)c1ccc(NC(=O)c2ccc(F)cc2)cc1`, with 253 to 255 °C. `CCCCc1oc2ccccc2c1C(=O)Nc1ccc2cc(O)ccc2c1`: the melting point lay in the range of 162 to 164 °C.

`O=Cc1cccc(-c2ccccn2)n1` had a melting point of 41 to 43 °C.

For the compound `NC(=O)c1cc2ccccc2nc1N`, the melting point was 240 to 242 °C. As to `CC1(C)C(=O)N(c2ccc(C#N)c(C(F)(F)F)c2)C(=S)N1CCCCO`, the melting point was 78 to 79 °C.

`CC(CS(=O)(=O)C(C)c1ccccc1)C(=O)O` (configuration not stated) yielded a melting point of 91 to 93 °C. `O=C(Nc1ccccc1)C1=C(N2CCOCC2)COC1=O` displayed a melting point of 205 to 206 °C. Compound `O=S(=O)(c1cc(Cl)cc(Cl)c1)c1nnc(C(F)(F)F)s1` yielded a melting point of 123 °C.

In turn, `COc1cccc(Cn2cc3c(-c4cccc(C(=O)NCCO)c4)cccc3n2)c1` showed a melting point of 176 to 177 °C. `COC(=O)C1CCCN(COS(C)(=O)=O)c2c1cc(OCc1ccccc1)c1ccccc21` (configuration not stated) showed a melting point of 130 to 132 °C. The result for `O=C1C(=O)N(C(c2ccccc2)(c2ccccc2)c2ccccc2)CCN1Cc1cc(=O)c(OCc2ccccc2)cn1Cc1ccccc1` reads 165 to 168 °C; that for `CCc1cc(OCc2ccc(-c3ccccc3C#N)cc2)c2c(n1)CCCC2`, 147 to 148 °C; that for `COC(=O)c1ccc(Cl)c2c1C=CCO2`, 49 to 50 °C.

Compound `CC(=O)OCCNc1nnc(-c2ccccc2)cc1C` gave a melting point of 127 °C. Then `COc1ccc(-c2cc(-c3ccccc3F)c(C#N)c(C)n2)cc1`, with 152 to 153 °C.

`NS(=O)(=O)c1cccc(-c2ccco2)c1`: the melting point lay within 197 to 198 °C.

As to `CCOC(CNN)OCC`, the melting point was in the range of 126 to 127 °C. `CON=C(Cl)c1ccccc1S(=O)(=O)NC(=O)Nc1nc(C)nc(OC)n1` showed a melting point of 182 to 184 °C.

The compound `NC(=S)Nc1ccccc1-c1cccc(F)c1` returned a melting point of 157 to 159 °C. The compound `Cc1ccc(N2C(=O)C3=C(CCCC3)C2=O)c2c1OC(CO)C2` (configuration not stated) displayed a melting point of 177 to 179 °C. In the case of `CCC(=O)c1ccc2c(c1)OC(c1ccccc1)(c1ccccc1)O2`, the melting point lay in the range of 69 to 70.5 °C.

Take `Cc1nc2c(c3c1[nH]c1ccc(F)cc13)C(=O)CC(C(C)C)C2` (configuration not stated): the melting point was 221 to 223 °C. Turning to `CCCc1c(OCCCCCCc2cccc(OCCCCCC(=O)O)c2CCC(=O)O)ccc2c1CCCC2=O`, the melting point lay in the range of 100 to 101 °C. Then `CCn1ncnc1COc1nn2c(-c3cc(F)ccc3F)nncc2c1C(C)(C)CC`, with 85 to 86 °C; and `NCc1c(Nc2ccccc2)cccc1-c1ccccc1`, with 115 to 116 °C. On to `O=C1C=C2CCCCC2N1c1ccc(O)c(Cl)c1` (configuration not stated), for which the melting point was determined as 216 °C. Regarding `CC(C)(C)OC(=O)N1CCN(c2ccc(N3C[C@H](CN)OC3=O)cc2F)CC1`, the melting point stood at 184 °C. The result for `COC(=O)c1cc(Cl)cnc1N` reads 139 to 140 °C; that for `CCOC(=O)C=C(C)Nc1ccc(F)c(OCc2ccccc2)c1`, 79 to 80 °C; that for `O=C(COCCc1coc2c(O)cccc12)c1ccccc1`, 114 to 115 °C. The compound `N#CCCNC(=O)c1cccc(-c2cccc3nc(C(O)c4cccc(C(F)(F)F)c4)cn23)c1` (configuration not stated) registered a melting point of 223 to 224 °C. In turn, `Cc1ccc(S(=O)(=O)N2CCC[C@H]2C(=O)N[C@@H](CC(=O)OC(C)(C)C)C(=O)O)cc1` (Tos-Pro-Asp(OtBu)-OH) yielded a melting point of 153 to 155 °C.

Compound `CCC(C)(Cc1cn(C)c2ccc(OC)cc12)[N+](=O)[O-]` (configuration not stated) had a melting point of 95 to 96 °C.

Compound `COC(=O)C(=C(/C)c1cc(OC)cc(OC)c1)/C(=C\c1cc(OC)cc(OC)c1)C(=O)O` returned a melting point of 137 to 140 °C. Compound `CCOC(=O)Nc1ccc2sc(C)cc(=O)c2c1` yielded a melting point of 219 to 220 °C. `CCCC(=O)Nc1n[nH]c2cc(-c3ccccc3)ccc12`: the melting point is 220 °C. Compound `c1ccc(C2Nc3ccccc3N3CCc4cccc2c43)cc1` (configuration not stated) displayed a melting point of 161 to 164 °C. On to `CS(=O)(=O)c1ccc(N2CCC(N3CCCC3)CC2)cc1`, for which the melting point fell in the range of 166 to 170 °C. As to `O=C(NC1CCCNC1)c1ccc2[nH]ncc2c1` (configuration not stated), the melting point fell in the range of 265 to 266 °C.

For the compound `Cc1ccc(C(=S)NCCCCCCCNC(=S)c2ccc(C)cc2)cc1`, the melting point was in the range of 181 to 182 °C. Then `CCCCC(Cc1ccc(OCCNC(=O)c2ccc(-c3ccccc3)cc2)cc1)C(=O)O` (configuration not stated), with 130 to 131 °C; and `CC(=O)Oc1c(C(C)C)cc(C(=O)Nc2cnc3c(C)cc(C)cc3c2-c2ccccc2Cl)cc1C(C)C`, with 195 to 196 °C. On to `CCCOc1ccccc1-c1nc2c(C(=O)O)cccc2c(=O)[nH]1`, for which the melting point was 195 to 197 °C.

With `CC1CC(=O)CCC1c1ccccc1` (configuration not stated), the melting point lay in the range of 71.5 to 72.5 °C.

With `COc1ccc2sc(=O)n(C(C)=O)c2c1`, the melting point lay in the range of 112 to 113 °C.

Compound `COc1cc2ncnc(Nc3cc(Cl)c(O)c(Cl)c3)c2cc1OC` gave a melting point of 293 to 295 °C.
